Like-named read-outs stand apart in the source and are kept apart here.
What was measured:
hTLR7 [1] = biological target: T1, hTLR7 (Homo sapiens, UniProt Q9NYK1); test: HEK293-Blue-hTLR-7 cells assay (SEAP reporter, R848 stimulation); format: cell-based; details: HEK293-Blue-hTLR7 cells, R848, 20 hrs; 0.003 is the lowest tested concentration; read-out: HEK/hTLR7 IC50
T1 sequence (Q9NYK1 27-1049): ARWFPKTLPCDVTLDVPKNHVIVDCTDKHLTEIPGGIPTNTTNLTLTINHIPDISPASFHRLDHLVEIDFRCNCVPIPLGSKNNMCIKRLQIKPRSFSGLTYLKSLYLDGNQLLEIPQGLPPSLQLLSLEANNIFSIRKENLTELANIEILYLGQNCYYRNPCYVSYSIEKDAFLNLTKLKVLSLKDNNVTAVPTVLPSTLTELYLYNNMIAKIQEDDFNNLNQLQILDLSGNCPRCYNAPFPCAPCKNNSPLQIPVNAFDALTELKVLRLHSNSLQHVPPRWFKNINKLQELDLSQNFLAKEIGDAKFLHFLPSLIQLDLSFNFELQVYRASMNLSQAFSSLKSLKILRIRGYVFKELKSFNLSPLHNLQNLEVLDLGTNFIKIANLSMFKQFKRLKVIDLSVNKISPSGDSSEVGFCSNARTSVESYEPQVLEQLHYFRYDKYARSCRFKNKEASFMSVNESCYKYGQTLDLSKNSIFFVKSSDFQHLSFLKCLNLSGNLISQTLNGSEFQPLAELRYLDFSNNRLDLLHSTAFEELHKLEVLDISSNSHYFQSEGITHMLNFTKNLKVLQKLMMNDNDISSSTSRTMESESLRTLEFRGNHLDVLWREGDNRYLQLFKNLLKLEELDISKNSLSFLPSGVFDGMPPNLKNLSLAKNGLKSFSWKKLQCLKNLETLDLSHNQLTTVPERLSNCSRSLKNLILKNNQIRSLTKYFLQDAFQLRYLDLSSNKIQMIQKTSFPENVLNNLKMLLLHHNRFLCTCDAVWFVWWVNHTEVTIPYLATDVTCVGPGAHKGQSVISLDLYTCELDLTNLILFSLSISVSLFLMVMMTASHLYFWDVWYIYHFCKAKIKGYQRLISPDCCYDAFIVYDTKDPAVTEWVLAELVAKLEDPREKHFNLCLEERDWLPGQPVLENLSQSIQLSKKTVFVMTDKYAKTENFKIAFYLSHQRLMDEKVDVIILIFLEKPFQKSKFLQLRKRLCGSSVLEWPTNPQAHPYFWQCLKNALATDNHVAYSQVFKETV
Method in brief: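 HEK293-Blue-hTLR7 cells carry an NF-κB/AP-1-driven SEAP reporter and were stimulated with R848 in the presence of serially diluted compound (1% DMSO final) for 20 hrs at 37 °C. Supernatant SEAP was measured with QUANTI-Blue after 2 hrs at 37 °C, reading absorbance at 620∼655 nm.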

hTLR7 [2] = biological target: T1, hTLR7; design: host or cells: HEK; details: data disclosed in US20150105370; read-out: HEK/hTLR7 IC50; cited from earlier work
[3] = Human microsome stability assay; format: in vitro ADME; details: human liver microsomes, 1 µM test compound, 0.5 mg/mL protein, 37°C, up to 30 minutes
Method: Human microsome stability assay
The human microsomal stability assay is used for early assessment of metabolic stability of a test compound in human liver microsomes.
Human liver microsomes (Cat.NO.: 452117, Corning, USA;Cat.NO.:H2610, Xenotech, USA) were preincubated with test compound for 10 minutes at 37°C in 100 mM potassium phosphate buffer, pH 7.4. The reactions were initiated by adding NADPH regenerating system. The final incubation mixtures contained 1 µM test compound, 0.5 mg/mL liver microsomal protein, 1 mM MgCl2, 1 mM NADP, 1 unit/mL isocitric dehydrogenase and 6 mM isocitric acid in 100 mM potassium phosphate buffer, pH 7.4. After incubation times of 0, 3, 6, 9, 15 and 30 minutes at 37°C, 300 µL of cold acetonitrile (including internal standard) was added to 100 µL incubation mixture to terminate the reaction. Following precipitation and centrifugation, the amount of compound remaining in the samples were determined by LC-MS/MS. Controls of no NADPH regenerating system at zero and 30 minutes were also prepared and analyzed. […] Table 3. Human liver microsome stability of the compounds of present invention

| IC50 (hTLR7 [1]) | Clearance of Human microsome [3] | Compound | IC50 (hTLR7 [2]) |
| --- | --- | --- | --- |
| 104 nM | 7.31 mL/min/kg | C[C@@H]1CN(c2ccc(C#N)n3nccc23)C[C@H](CNCc2ccc(N3CCNCC3)cc2)O1 [Example 16, 4-[(2R,6S)-2-methyl-6-[[(4-piperazin-1-ylphenyl)methylamino]methyl]morpholin-4-yl]pyrazolo[1,5-a]pyridine-7-carbonitrile] | – |
| 11 nM | 6.17 mL/min/kg | C[C@@H]1CN(c2ccc(C#N)c3ncccc23)C[C@H](CN2CCc3cc(N4CCNCC4)ccc3C2)O1 [Example 19, 5-[(2R,6S)-2-methyl-6-[(6-piperazin-1-yl-3,4-dihydro-1H-isoquinolin-2-yl)methyl]morpholin-4-yl]quinoline-8-carbonitrile] | – |
| 9 nM | 6.15 mL/min/kg | C[C@@H]1CN(c2ccc(C#N)c3ncccc23)C[C@H](CN2Cc3ccc(N4CCNCC4)cc3C2)O1 [Example 21, 5-[(2R,6S)-2-methyl-6-[(5-piperazin-1-ylisoindolin-2-yl)methyl]morpholin-4-yl]quinoline-8-carbonitrile] | – |
| 80 nM | 7.09 mL/min/kg | C[C@@H]1CN(c2ccc(C#N)c3ncccc23)C[C@H](CN2Cc3ccc(N4CC5(CCN5)C4)cc3C2)O1 [Example 55, 5-[(2S,6R)-2-[[5-(1,6-diazaspiro[3.3]heptan-6-yl)isoindolin-2-yl]methyl]-6-methyl-morpholin-4-yl]quinoline-8-carbonitrile] | – |
| 26 nM | 6.39 mL/min/kg | C[C@@H]1CN(c2ccc3c(c2)CN(C[C@H]2CN(c4ccc(C#N)c5ncccc45)C[C@@H](C)O2)C3)CCN1 [Example 62, 5-[(2R,6S)-2-methyl-6-[[5-[(3R)-3-methylpiperazin-1-yl]isoindolin-2-yl]methyl]morpholin-4-yl] quinoline-8-carbonitrile] | – |

| Compound | IC50 (hTLR7 [1]) | Clearance of Human microsome [3] | IC50 (hTLR7 [2]) |
| --- | --- | --- | --- |
| C[C@@H]1CN(c2ccc(C#N)c3ncccc23)C[C@H](CNCc2ccccc2)O1 [ER-886509, reference compound] | 88 nM | 15.2 mL/min/kg | 44 nM |
| C[C@@H]1CN(c2ccc(C#N)c3ncccc23)C[C@H](CN2Cc3ccccc3C2)O1 [Example R3, 5-[(2S,6R)-2-(isoindolin-2-ylmethyl)-6-methyl-morpholin-4-yl]quinoline-8-carbonitrile, reference compound] | 186 nM | 15.4 mL/min/kg | – |
